Results: the supplement of paper PMC10307832

How the values were obtained:
Assay in all cases: relative viability (nuclei count vs DMSO), 5 days (fraction); higher = more cells survive
Etoposide + Palbociclib = compound: COc1cc([C@@H]2c3cc4c(cc3[C@@H](O[C@@H]3O[C@@H]5CO[C@@H](C)O[C@H]5[C@H](O)[C@H]3O)[C@H]3COC(=O)[C@H]23)OCO4)cc(OC)c1O [Etoposide] + CC(=O)c1c(C)c2cnc(Nc3ccc(N4CCNCC4)cn3)nc2n(C2CCCC2)c1=O [Palbociclib] (partner 0.5 µM)
Summary of the method: (§1)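 For relative viability, nuclei counts in treated wells were divided by those in vehicle wells. Lung cancer cell lines had been pin-tool dosed in 1536-well plates the day after seeding and cultured for 5 days, then fixed and stained in one step (final 0.05% Triton X-100, 1% formaldehyde, 1 ug/ml Hoechst) and imaged at 4×. Doses were one drug alone or a fixed anchor-drug dose plus five library-drug doses (not always all listed) in √10 steps, and values are duplicate-plate medians.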

Etoposide + Linsitinib = compound: COc1cc([C@@H]2c3cc4c(cc3[C@@H](O[C@@H]3O[C@@H]5CO[C@@H](C)O[C@H]5[C@H](O)[C@H]3O)[C@H]3COC(=O)[C@H]23)OCO4)cc(OC)c1O [Etoposide] + C[C@]1(O)C[C@@H](c2nc(-c3ccc4ccc(-c5ccccc5)nc4c3)c3c(N)nccn32)C1 [Linsitinib] (partner 1 µM)
Summary of the method: as §1

Bleomycin + Tozasertib = compound: CC1=C(N=C(N=C1N)[C@H](CC(=O)N)NC[C@@H](C(=O)N)N)C(=O)N[C@@H]([C@H](C2=CN=CN2)OC3C(C(C(C(O3)CO)O)O)OC4C(C(C(C(O4)CO)O)OC(=O)N)O)C(=O)N[C@H](C)[C@H]([C@H](C)C(=O)N[C@@H]([C@@H](C)O)C(=O)NCCC5=NC(=CS5)C6=NC(=CS6)C(=O)NCCC[S+](C)C)O [Bleomycin] + Cc1cc(Nc2cc(N3CCN(C)CC3)nc(Sc3ccc(NC(=O)C4CC4)cc3)n2)n[nH]1 [Tozasertib] (partner 0.1 µM); settings: main component drawn
Summary of the method: as §1

Etoposide + Navitoclax = compound: COc1cc([C@@H]2c3cc4c(cc3[C@@H](O[C@@H]3O[C@@H]5CO[C@@H](C)O[C@H]5[C@H](O)[C@H]3O)[C@H]3COC(=O)[C@H]23)OCO4)cc(OC)c1O [Etoposide] + CC1(C)CCC(c2ccc(Cl)cc2)=C(CN2CCN(c3ccc(C(=O)NS(=O)(=O)c4ccc(N[C@H](CCN5CCOCC5)CSc5ccccc5)c(S(=O)(=O)C(F)(F)F)c4)cc3)CC2)C1 [Navitoclax] (partner 0.5 µM)
Summary of the method: as §1

| Cell Line | relative viability (Etoposide + Palbociclib; first compound 0.01 µM) | relative viability (Etoposide + Palbociclib; first compound 0.03162 µM) | relative viability (Etoposide + Palbociclib; first compound 0.1 µM) | relative viability (Etoposide + Palbociclib; first compound 0.3162 µM) | relative viability (Etoposide + Palbociclib; first compound 1 µM) | relative viability (Etoposide + Linsitinib; first compound 0.01 µM) | relative viability (Etoposide + Linsitinib; first compound 0.03162 µM) | relative viability (Etoposide + Linsitinib; first compound 0.1 µM) | relative viability (Etoposide + Linsitinib; first compound 0.3162 µM) | relative viability (Etoposide + Linsitinib; first compound 1 µM) | relative viability (Bleomycin + Tozasertib; first compound 0.01 µM) | relative viability (Bleomycin + Tozasertib; first compound 0.03162 µM) | relative viability (Bleomycin + Tozasertib; first compound 0.1 µM) | relative viability (Bleomycin + Tozasertib; first compound 0.3162 µM) | relative viability (Bleomycin + Tozasertib; first compound 1 µM) | relative viability (Etoposide + Navitoclax; first compound 0.01 µM) | relative viability (Etoposide + Navitoclax; first compound 0.03162 µM) | relative viability (Etoposide + Navitoclax; first compound 0.1 µM) | relative viability (Etoposide + Navitoclax; first compound 0.3162 µM) | relative viability (Etoposide + Navitoclax; first compound 1 µM) |
| --- | --- | --- | --- | --- | --- | --- | --- | --- | --- | --- | --- | --- | --- | --- | --- | --- | --- | --- | --- | --- |
| NCI-H1734 | 0.358 | 0.374 | 0.312 | 0.306 | 0.242 | 0.746 | 0.932 | 0.725 | 0.688 | 0.509 | 0.222 | 0.223 | 0.279 | 0.199 | 0.15 | 0.761 | 0.9 | 0.665 | 0.598 | 0.266 |
| NCI-H2228 | 0.705 | 0.765 | 0.435 | 0.32 | 0.145 | 0.535 | 0.57 | 0.728 | 0.627 | 0.462 | 0.216 | 0.248 | 0.218 | 0.12 | 0.137 | 0.842 | 0.934 | 0.849 | 0.473 | 0.138 |
| EMC-BAC-2 | 0.495 | 0.49 | 0.399 | 0.321 | 0.254 | 0.719 | 0.803 | 0.58 | 0.273 | 0.186 | 0.2 | 0.278 | 0.246 | 0.22 | 0.178 | 1.08 | 1.05 | 0.83 | 0.297 | 0.161 |
| NCI-H1993 | – | 0.773 | 0.481 | 0.659 | 0.482 | 0.81 | 0.692 | 0.7 | 0.662 | 0.537 | 0.505 | 0.501 | 0.551 | 0.575 | 0.539 | 0.921 | 1.08 | 0.856 | 0.758 | 0.533 |
| SW 1573 | 0.363 | 0.349 | 0.288 | 0.16 | 0.109 | 0.884 | 0.76 | 0.646 | 0.327 | 0.277 | 0.141 | 0.184 | 0.17 | 0.129 | 0.161 | 0.926 | 0.946 | 0.639 | 0.209 | 0.0658 |
| NCI-H2009 | 0.203 | 0.213 | 0.145 | 0.25 | 0.148 | 1.09 | 1.24 | 1.25 | 0.839 | 0.401 | 0.717 | 0.789 | 0.701 | 0.424 | 0.351 | 1.13 | 1.08 | 1.21 | 0.771 | 0.496 |
| LOU-NH91 | 0.556 | 0.545 | 0.516 | 0.468 | 0.428 | 0.892 | 0.943 | 0.702 | 0.728 | 0.538 | 0.504 | 0.289 | 0.404 | 0.323 | 0.274 | 0.695 | 0.654 | 0.504 | 0.464 | 0.329 |
| NCI-H3122 | 0.218 | 0.219 | 0.164 | 0.182 | 0.165 | 1.04 | 1.05 | 1.03 | 0.88 | 0.449 | 0.337 | 0.281 | 0.324 | 0.177 | 0.166 | 1.05 | 1.04 | 1.05 | 0.877 | 0.477 |
| LCLC-97TM1 | 0.243 | 0.248 | 0.169 | 0.165 | 0.121 | – | 0.193 | 0.122 | 0.151 | 0.1 | 0.176 | 0.217 | 0.218 | 0.158 | 0.195 | – | 0.62 | 0.327 | 0.178 | 0.141 |
| NCI-H647 | 0.423 | 0.458 | 0.321 | 0.258 | 0.216 | 1.14 | 1.15 | 1.13 | 0.416 | 0.164 | 0.0723 | 0.103 | 0.0701 | 0.0484 | 0.0467 | 0.936 | 1.18 | 0.961 | 0.261 | 0.241 |
| NCI-H838 | 0.172 | 0.238 | 0.169 | 0.226 | 0.244 | 0.937 | 0.994 | 0.902 | 0.644 | 0.296 | 0.238 | 0.211 | 0.178 | 0.15 | 0.139 | 1.09 | 1.14 | 1.19 | 0.705 | 0.338 |
| H3255 | 0.331 | 0.334 | 0.351 | 0.315 | 0.281 | 0.872 | 1.11 | 0.815 | 0.713 | 0.336 | 0.543 | 0.489 | 0.622 | 0.427 | 0.278 | 0.538 | 0.556 | 0.334 | 0.348 | 0.14 |
| SK-MES-1 | 0.338 | 0.31 | 0.315 | 0.262 | 0.239 | 1.05 | 1.07 | 0.862 | 0.612 | 0.262 | 0.531 | 0.542 | 0.35 | 0.15 | 0.134 | 1.14 | 1.23 | 0.913 | 0.532 | 0.211 |
| NCI-H1437 | 0.278 | 0.352 | 0.279 | 0.293 | 0.269 | 0.993 | 1.07 | 0.984 | 0.566 | 0.262 | 0.369 | 0.404 | 0.369 | 0.309 | 0.324 | 1.11 | 1.01 | 1.01 | 0.524 | 0.296 |
